# Experimental data from patent US20040175763A1, “Crohn's disease antibody-binding peptide and method of examining crohn's disease” (priority 2001, published 2004).
# Experiments:
# Crohn's disease antibody = assay: Reaction inhibition test with one amino acid-substituted MAP peptides on CDP3 MAP plate (Example 6(2)); type: binding, human; details: inhibitor MAP peptide 100 μg/mL
# Method: Referring to the amino acid sequence of CDP peptide, in order to determine the sequence necessary for the specific reactivity to Crohn's disease antibody, the following reaction inhibition test was performed using each of the one amino acid-substituted MAP peptides prepared as above as the reaction inhibitor.
# More particularly, using the MAP plate prepared by immobilizing the MAP peptide of CDP3 (see Example 2(1)) as the antigen plate, the test was performed by 3 reaction steps. In the primary reaction, the Crohn's disease patient serum was diluted 100-fold with a sample diluent containing the one amino acid-substituted MAP peptide in a concentration of 100 μg/mL (0.1 M Tris-buffer containing 0.5 M sodium chloride, 1.5% casein, 2% normal goat serum and 0.2% Tween 20) and reacted at 25° C. for one hour. In the secondary reaction, 100 μL/well of the primary reaction mixture was added to the plate and reacted at 25° C. for one hour, after which the plate was washed 3 times. In the tertiary reaction, 100 μL/well of HRP-labeled anti-human IgG (Fc)-specific antibody diluted 5,000-fold in an enzyme-labeled antibody diluent (Tris buffer containing 0.14 M sodium chloride, 0.5% BAS, 5% normal goat serum and 0.05% Tween 20) was added to the plate, and reacted at 25° C. for 1 hour, followed by 3 rounds of washing. Detection was performed as in Example 2(1) to measure the reaction-inhibiting activity of the one amino acid-substituted MAP peptide.
# [1] = system: Crohn's disease patient serum antibody; assay: Phage ELISA of CD-binding peptide display phage clones with serum samples; parameters: species or system human; details: 20 Crohn's disease, 20 ulcerative colitis, 20 healthy volunteer serum samples
# Method: Using the monoclonal CD-binding peptide display phage obtained as above, phage ELISA was carried out with the same healthy volunteer serum pool and Crohn's disease patient serum pool as used in the above biopanning (cf. (i)).
# In the ELISA, an anti-phage antibody (Pharmacia) was immobilized on a 96-well microtiter plate in the first place. Specifically, this immobilization was carried out by adding an anti-phage antibody (Pharmacia) solution prepared in a 1 μg/ml concentration with (D)-PBS, to the plate, 100 μl per well. The plate was left sitting at 4° C. overnight and then washed, and after addition of 300 μl of blocking solution ((D)-PBS containing 1% BSA and 5% sorbitol), further left sitting at 4° C. overnight.
# The primary reaction was carried out as follows. Thus, 10 μl of the phage solution in (ii) was added to 90 μl of phage ELISA buffer ((D)-PBS containing 1% BSA, 0.05% Tween 20 and 10% normal goat serum), the mixture was added to each well coated with said anti-phage antibody, and the reaction was conducted at 37° C. for 1 hour. After completion of the primary reaction, the plate was washed 4 times and the secondary reaction was carried out. The secondary reaction was performed by adding the mixture containing 1 μl of serum (healthy volunteer serum or Crohn's disease patient serum) and 100 μl of phage ELISA buffer, to each well, and allowing the reaction to proceed at 37° C. for 1 hour. After completion of the secondary reaction, the plate was washed 4 times and the tertiary reaction was carried out. The tertiary reaction was conducted by adding HRP (horseradish peroxidase)-labeled anti-human IgG (Fc)-specific antibody, diluted 40,000-fold in phage ELISA buffer (20 ng/ml) in advance, to the plate, 100 μl per well, and allowing the reaction to proceed at 37° C. for one hour. After completion of the tertiary reaction, the plate was washed and a color development reaction was carried out. The color development was conducted by adding TMB (3,3′,5,5′-tetramethylbenzidine) solution to the plate, allowing the reaction to proceed at room temperature for 10 minutes, and stopping the reaction with a stopper (1N sulfuric acid). The plate after reaction stopping was measured for absorbance (OD 450 nm) with a plate reader to evaluate the reactivity with the serum antibody.
# For the 5 clones thus selected, the reactivity (ELISA) with the respective serum samples (Crohn's disease patient serum, ulcerative colitis patient serum, and healthy volunteer serum) was evaluated.
# [2] = system: Crohn's disease antibody (serum IgG); assay: ELISA using each branched multiple antigenic peptide (MAP peptide) as the antigen; type: binding, human; details: for Positive rate Ulcerative colitis patients: 20 ulcerative colitis patient sera; for Positive rate Ulcerative colitis patients / Positive rate Healthy volunteers: cut-off mean OD+5SD of 48 healthy volunteer sera; for reaction with ulcerative colitis patient sera or healthy volunteer sera: 20 ulcerative colitis, 48 healthy volunteer serum samples; for Positive rate Healthy volunteers: 48 healthy volunteer sera
# Method: Using each MAP peptide (the MAP peptides of CDP-1, CDP-2, CDP-3, and CDP-4; see FIG. 2) obtained in Example 1 as the antigen peptide, the reactivity to each serum sample (Crohn's disease patient serum, ulcerative colitis patient serum, and healthy volunteer serum) was evaluated by ELISA.
# In the first place, each MAP peptide was immobilized on a 96-well microtiter plate. Thus, this immobilization was carried out in accordance with the protocol which comprises dissolving each MAP peptide in bicarbonate buffer (50 mM, pH 9.6) at a concentration of 1 μg/ml to prepare a MAP solution, adding the solution to the antigen plate, 100 μl per well, then leaving the plate sitting at 4° C. overnight, washing it, adding 300 μl of casein solution ((D)-PBS containing 0.1% casein and 1% Triton X-100), and leaving the plate sitting again at 4° C. overnight.
# (i) Using the MAP plates carrying the respective MAP peptides immobilized, the reactivity of each MAP peptide to 20 Crohn's disease patient serum samples, 20 ulcerative colitis patient serum samples and 48 healthy volunteer serum samples was verified by ELISA.
# More particularly, a primary reaction was carried out by adding mixture containing 1 μl of the serum antibody and 100 μl of casein solution to each well of the MAP plate, and allowing the reaction to proceed at 37° C. for one hour. After completion of the primary reaction, the plate was washed 4 times and a 20,000-fold dilution of HRP-labeled anti-human IgG(Fc)-specific antibody in casein solution was added into the wells and incubated at 37° C. for one hour to carry out a secondary reaction. After completion of the secondary reaction, the plate was washed 4 times and a color development reaction was carried out. For detection, 100 μl of TMB solution was added to the plate and reacted at room temperature for 10 minutes, at the end of which time the reaction was stopped by adding 100 μl of TMB stop solution (1N sulfuric acid). The absorbance at OD 450 nm was measured with a plate reader to investigate the reactivity to each MAP plate for each serum. […] It can also be seen in FIG. 3 that the reactivity of each MAP peptide to Crohn's disease patient serum varied among different kinds of MAP peptides without consistency.
# (ii) Then, using a large number of serum samples (96 Crohn's disease patient serum samples, 20 ulcerative colitis patient serum samples, and 48 healthy volunteer serum samples), the reactivity of the above MAP peptides (the MAP peptides of CDP-1, CDP-2, CDP-3, and CDP-4) was investigated by the same method as in (i) to evaluate the specificity of the respective peptides to Crohn's disease patient sera.
Substance,"reaction-inhibiting activity, Patient serum sample No. 2 (Crohn's disease antibody)","reaction-inhibiting activity, Patient serum sample No. 7 (Crohn's disease antibody)","reaction-inhibiting activity, Patient serum sample No. 8 (Crohn's disease antibody)",specificity to Crohn's disease patient serum (phage ELISA reactivity) [1],Positive rate Ulcerative colitis patients [2],reaction with ulcerative colitis patient sera or healthy volunteer sera [2],Positive rate Healthy volunteers [2]
A E G E L R Q S D A Q Y Q M (AEGELRQSDAQYQM) [CDP3-10],+ (+: reaction-inhibiting activity between 30% and 50%),+++ (+++: reaction-inhibiting activity = 70%),+++ (+++: reaction-inhibiting activity = 70%),,,,
A E G E A R Q S D G Q Y Q M (AEGEARQSDGQYQM) [CDP3-5],+++ (+++: reaction-inhibiting activity = 70%),+++ (+++: reaction-inhibiting activity = 70%),+++ (+++: reaction-inhibiting activity = 70%),,,,
A A G E L R Q S D G Q Y Q M (AAGELRQSDGQYQM) [CDP3-2],+++ (+++: reaction-inhibiting activity = 70%),+++ (+++: reaction-inhibiting activity = 70%),+++ (+++: reaction-inhibiting activity = 70%),,,,
AEGEL YRWLPPSSA GDPA [CD-2],,,,high specificity to Crohn's disease patient serum,,,
A E G E L R Q S D G Q A Q M (AEGELRQSDGQAQM) [CDP3-12],+++ (+++: reaction-inhibiting activity = 70%),+++ (+++: reaction-inhibiting activity = 70%),+++ (+++: reaction-inhibiting activity = 70%),,,,
AEGELRQSDGQYQMGDPA [CDP-3],,,,,0% (0/20),did not appreciably react,0% (0/48)
A E A E L R Q S D G Q Y Q M (AEAELRQSDGQYQM) [CDP3-3],+++ (+++: reaction-inhibiting activity = 70%),+++ (+++: reaction-inhibiting activity = 70%),+++ (+++: reaction-inhibiting activity = 70%),,,,
A E G A L R Q S D G Q Y Q M (AEGALRQSDGQYQM) [CDP3-4],+++ (+++: reaction-inhibiting activity = 70%),+++ (+++: reaction-inhibiting activity = 70%),+++ (+++: reaction-inhibiting activity = 70%),,,,
AEGEL RQSDGQYQM GDPA [CD-3],,,,high specificity to Crohn's disease patient serum,,,
A E G E L R A S D G Q Y Q M (AEGELRASDGQYQM) [CDP3-7],− (−: reaction-inhibiting activity = 30%),− (−: reaction-inhibiting activity = 30%),− (−: reaction-inhibiting activity = 30%),,,,
A E G E L R Q S D G A Y Q M (AEGELRQSDGAYQM) [CDP3-11],− (−: reaction-inhibiting activity = 30%),+ (+: reaction-inhibiting activity between 30% and 50%),− (−: reaction-inhibiting activity = 30%),,,,
S E G E L R Q S D G Q Y Q M (SEGELRQSDGQYQM) [CPP3-1],+++ (+++: reaction-inhibiting activity = 70%),+++ (+++: reaction-inhibiting activity = 70%),+++ (+++: reaction-inhibiting activity = 70%),,,,
AEGELGLLAQQMDYADPA [CDP-1],,,,,0% (0/20),did not appreciably react,4.2% (2/48)
A E G E L R Q S A G Q Y Q M (AEGELRQSAGQYQM) [CDP3-9],− (−: reaction-inhibiting activity = 30%),+ (+: reaction-inhibiting activity between 30% and 50%),− (−: reaction-inhibiting activity = 30%),,,,
A E G E L R Q S D G Q Y Q A (AEGELRQSDGQYQA) [CDP3-14],+++ (+++: reaction-inhibiting activity = 70%),+++ (+++: reaction-inhibiting activity = 70%),+++ (+++: reaction-inhibiting activity = 70%),,,,
AEGELYRWLPPSSAGDPA [CDP-2],,,,,5% (1/20),did not appreciably react,2.1% (1/48)
A E G E L R Q A D G Q Y Q M (AEGELRQADGQYQM) [CDP3-8],+++ (+++: reaction-inhibiting activity = 70%),+++ (+++: reaction-inhibiting activity = 70%),+++ (+++: reaction-inhibiting activity = 70%),,,,
AEGELGGIYQDLVSGDPA [CDP-4],,,,,5% (1/20),did not appreciably react,4.2% (2/48)
A E G E L R Q S D G Q Y A M (AEGELRQSDGQYAM) [CDP3-13],+ (+: reaction-inhibiting activity between 30% and 50%),+++ (+++: reaction-inhibiting activity = 70%),++ (++: reaction-inhibiting activity between 50% and 70%),,,,
A E G E L A Q S D G Q Y Q M (AEGELAQSDGQYQM) [CDP3-6],+++ (+++: reaction-inhibiting activity = 70%),+++ (+++: reaction-inhibiting activity = 70%),+++ (+++: reaction-inhibiting activity = 70%),,,,
